Results from ChEMBL document CHEMBL1759979, “Impact of aryloxy-linked quinazolines: a novel series of selective VEGFR-2 receptor tyrosine kinase inhibitors” (Bioorg Med Chem Lett, 2011).
pIC50: −log10 of the molar value.

Assays:
[1] = biological target: Epidermal growth factor receptor (Homo sapiens, UniProt P00533); test: Inhibition of human EGFR-mediated poly(Glu4Tyr) phosphorylation after 1 hr
[2] = biological target: T1, Vascular endothelial growth factor receptor 2 (Homo sapiens, UniProt P35968); test: Inhibition of recombinant human VEGFR-2-mediated poly(Glu4Tyr) phosphorylation after 1 hr
T1 sequence (P35968 whole entry): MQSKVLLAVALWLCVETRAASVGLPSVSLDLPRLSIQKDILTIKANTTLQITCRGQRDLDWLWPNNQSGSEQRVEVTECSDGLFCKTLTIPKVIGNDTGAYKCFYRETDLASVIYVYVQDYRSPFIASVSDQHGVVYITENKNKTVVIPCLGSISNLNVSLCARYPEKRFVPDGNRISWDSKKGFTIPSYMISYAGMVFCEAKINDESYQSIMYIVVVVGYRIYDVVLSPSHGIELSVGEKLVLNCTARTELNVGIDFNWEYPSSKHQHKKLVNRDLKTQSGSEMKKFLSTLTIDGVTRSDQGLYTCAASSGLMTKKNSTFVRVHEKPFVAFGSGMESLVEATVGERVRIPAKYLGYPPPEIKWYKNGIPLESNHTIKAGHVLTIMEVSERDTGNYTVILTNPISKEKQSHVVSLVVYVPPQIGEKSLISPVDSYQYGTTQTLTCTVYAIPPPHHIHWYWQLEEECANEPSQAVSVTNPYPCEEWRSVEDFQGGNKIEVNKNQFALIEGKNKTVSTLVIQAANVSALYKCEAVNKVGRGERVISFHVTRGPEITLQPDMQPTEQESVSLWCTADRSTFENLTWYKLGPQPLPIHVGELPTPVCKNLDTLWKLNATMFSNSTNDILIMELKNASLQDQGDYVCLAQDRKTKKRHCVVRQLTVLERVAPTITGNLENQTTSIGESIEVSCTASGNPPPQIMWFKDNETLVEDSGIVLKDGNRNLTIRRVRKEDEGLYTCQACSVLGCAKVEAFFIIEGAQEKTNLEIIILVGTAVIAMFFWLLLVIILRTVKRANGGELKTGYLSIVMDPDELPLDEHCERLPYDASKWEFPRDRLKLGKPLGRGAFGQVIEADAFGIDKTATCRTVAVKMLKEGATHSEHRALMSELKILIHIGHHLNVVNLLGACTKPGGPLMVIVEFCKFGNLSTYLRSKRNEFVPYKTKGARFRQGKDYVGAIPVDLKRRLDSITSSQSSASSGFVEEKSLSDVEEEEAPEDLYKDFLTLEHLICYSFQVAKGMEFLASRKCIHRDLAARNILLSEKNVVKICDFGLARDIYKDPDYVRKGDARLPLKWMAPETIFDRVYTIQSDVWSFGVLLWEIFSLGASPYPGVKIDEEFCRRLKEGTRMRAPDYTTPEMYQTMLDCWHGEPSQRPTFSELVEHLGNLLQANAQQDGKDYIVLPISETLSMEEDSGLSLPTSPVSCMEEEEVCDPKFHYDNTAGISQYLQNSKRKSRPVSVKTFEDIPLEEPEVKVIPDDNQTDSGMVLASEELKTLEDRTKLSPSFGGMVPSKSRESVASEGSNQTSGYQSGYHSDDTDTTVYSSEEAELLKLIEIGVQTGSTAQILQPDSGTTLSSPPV

MCF7 [3] = test: Antiproliferative activity against human MCF7 cells after 72 hrs by MTS assay; assay type: functional; set-up: concentration or dose not given beside the values
HT-29 [4] = test: Antiproliferative activity against human HT-29 cells after 72 hrs by MTS assay; assay type: functional; set-up: concentration or dose not given beside the values
[5] = Antiproliferative activity against human EAhy926 cells after 72 hrs by MTS assay; assay type: functional, EA.hy 926; set-up: concentration or dose not given beside the values
PC-3 [6] = test: Antiproliferative activity against human PC3 cells after 72 hrs by MTS assay; assay type: functional; set-up: concentration or dose not given beside the values
HT-29 [7] = test: Antiproliferative activity against human HT-29 cells at 10 uM after 72 hrs by MTS assay; assay type: functional, cell-based; settings: HT-29, 72 h
[8] = Antiproliferative activity against human EAhy926 cells at 10 uM after 72 hrs by MTS assay; assay type: functional, cell-based; settings: EA.hy 926, 72 h
[9] = biological target: T1, Vascular endothelial growth factor receptor 2; test: Inhibition of KDR
PC-3 [10] = test: Antiproliferative activity against human PC3 cells at 10 uM after 72 hrs by MTS assay; assay type: functional, cell-based; settings: PC-3, 72 h
MCF7 [11] = test: Antiproliferative activity against human MCF7 cells at 10 uM after 72 hrs by MTS assay; settings: MCF7, 72 h

Sequence of Epidermal growth factor receptor (P00533 whole entry): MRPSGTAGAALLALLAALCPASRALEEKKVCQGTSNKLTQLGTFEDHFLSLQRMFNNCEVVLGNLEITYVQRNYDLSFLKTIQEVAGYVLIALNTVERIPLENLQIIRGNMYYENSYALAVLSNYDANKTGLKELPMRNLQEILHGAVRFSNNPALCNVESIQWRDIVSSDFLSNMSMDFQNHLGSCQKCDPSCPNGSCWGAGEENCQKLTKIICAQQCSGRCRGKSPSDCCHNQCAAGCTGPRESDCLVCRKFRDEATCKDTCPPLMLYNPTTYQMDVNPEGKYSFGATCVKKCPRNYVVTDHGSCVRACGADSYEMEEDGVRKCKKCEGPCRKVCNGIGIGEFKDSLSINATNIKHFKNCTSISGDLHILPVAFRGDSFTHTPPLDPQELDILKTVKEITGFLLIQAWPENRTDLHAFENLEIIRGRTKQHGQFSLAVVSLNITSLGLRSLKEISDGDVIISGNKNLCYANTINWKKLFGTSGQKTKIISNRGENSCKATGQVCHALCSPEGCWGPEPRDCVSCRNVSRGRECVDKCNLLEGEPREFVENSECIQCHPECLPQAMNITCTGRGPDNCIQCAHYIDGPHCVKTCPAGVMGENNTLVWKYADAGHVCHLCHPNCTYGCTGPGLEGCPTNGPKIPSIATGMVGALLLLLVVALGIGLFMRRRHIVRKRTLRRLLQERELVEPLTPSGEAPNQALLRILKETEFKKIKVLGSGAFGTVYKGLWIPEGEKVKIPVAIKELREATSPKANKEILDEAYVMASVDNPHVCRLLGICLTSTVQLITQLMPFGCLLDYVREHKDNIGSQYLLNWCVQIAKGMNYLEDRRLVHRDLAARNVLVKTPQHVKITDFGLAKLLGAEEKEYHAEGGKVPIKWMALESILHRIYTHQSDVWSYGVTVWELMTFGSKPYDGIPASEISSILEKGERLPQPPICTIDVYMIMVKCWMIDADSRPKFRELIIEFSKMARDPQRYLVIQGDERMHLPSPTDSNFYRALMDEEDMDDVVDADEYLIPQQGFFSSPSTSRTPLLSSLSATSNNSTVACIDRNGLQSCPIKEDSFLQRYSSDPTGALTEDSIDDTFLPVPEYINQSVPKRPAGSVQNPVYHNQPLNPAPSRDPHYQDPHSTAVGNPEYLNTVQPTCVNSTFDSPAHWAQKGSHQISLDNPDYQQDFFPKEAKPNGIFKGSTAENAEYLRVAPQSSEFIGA

Row | SMILES | pIC50 [1] | pIC50 [2] | Activity (MCF7 [3]) [%] | Activity (HT-29 [4]) [%] | Activity [5] [%] | Activity (PC-3 [6]) [%] | other results
1 | COc1cc2ncnc(Nc3ccc(NC(=O)Nc4ccccc4)cc3)c2cc1OC | < 5.00 |  |  |  |  |  | 
2 | CCCCNC(=O)Nc1ccc(Oc2ncnc3cc(OC)c(OC)cc23)cc1 | < 5.00 |  |  |  |  |  | 
3 | COc1cc2ncnc(N(C)c3ccc(NC(=O)Nc4ccc(F)c(Cl)c4)cc3)c2cc1OC | < 5.00 | < 5.00 | 35 |  | 29 |  | 
4 | COc1cc2ncnc(Nc3ccc(Br)cc3F)c2cc1OC | 5.24 | 5.78 | 31 | 0 | 0 | 1 | 
5 | COc1cc2ncnc(Oc3ccc(F)c(Cl)c3)c2cc1OC | < 5.00 | 5.02 | 0 |  |  | 5 | pIC50 (HT-29 [7]): 5.39
6 | COc1cc2ncnc(Oc3ccc(NC(=O)NC4CCCCC4)cc3)c2cc1OC | < 5.00 |  |  |  |  |  | 
7 | COc1cc2ncnc(N(C)c3cccc(NC(=O)Nc4ccccc4)c3)c2cc1OC |  |  | 0 | 0 | 0 | 0 | 
8 | COc1cc2ncnc(Oc3cccc(NC(=O)Nc4ccccc4)c3)c2cc1OC | < 5.00 |  |  |  |  |  | 
9 | COc1cc2/c(=N/c3ccc(Br)cc3F)nc[nH]c2cc1OCC1CCN(C)CC1 [VANDETANIB] |  |  | 26 |  |  | 33 | pIC50 [8]: 5.29; pIC50 (HT-29 [7]): 5.38
10 | COc1cc2ncnc(Nc3ccc(NC(C)=O)cc3)c2cc1OC | < 5.00 | < 5.00 | 12 | 0 | 0 | 2 | 
11 | COc1cc2ncnc(Nc3cccc(Br)c3)c2cc1OC |  |  |  |  |  | 40 | pIC50 [8]: 5.15
12 | COc1cc2ncnc(Oc3ccc(NC(=O)Nc4ccc(Br)cc4)cc3)c2cc1OC | < 5.00 |  |  |  |  |  | 
13 | COc1cc2ncnc(Oc3ccc(Br)c(F)c3)c2cc1OC | 5.23 |  |  |  |  |  | 
14 | COc1cc2ncnc(Oc3ccc(NC(C)=O)cc3)c2cc1OC |  |  | 5 | 0 | 3 | 0 | 
15 | COc1cc2ncnc(Nc3ccc(NC(=O)Nc4ccc(F)c(Cl)c4)cc3)c2cc1OC | < 5.00 | 5.37 |  |  |  |  | pIC50 (PC-3 [10]): 5.03; pIC50 (MCF7 [11]): 5.11; pIC50 [8]: 5.28; pIC50 (HT-29 [7]): 5.21
16 | COc1ccc(NC(=O)Nc2cccc(N(C)c3ncnc4cc(OC)c(OC)cc34)c2)cc1 |  |  | 0 | 0 | 0 | 0 | 
17 | COc1cc2ncnc(N(C)c3ccc(F)c(Cl)c3)c2cc1OC | < 5.00 | < 5.00 | 0 |  | 46 | 22 | pIC50 (HT-29 [7]): 5.28
18 | COc1cc2ncnc(Oc3cccc(Br)c3)c2cc1OC | 5.12 |  | 0 | 6 | 0 | 27 | 

Second part, led by results:

Row | pIC50 [1] | pIC50 [2] | SMILES | Activity (MCF7 [3]) [%] | Activity (HT-29 [4]) [%] | Activity [5] [%] | Activity (PC-3 [6]) [%] | other results
19 | < 5.00 | 7.22 | COc1cc2ncnc(Oc3ccc(NC(=O)Nc4ccccc4)cc3)c2cc1OC | 12 | 12 | 15 | 23 | 
20 | < 5.00 | < 5.00 | COc1cc2ncnc(N(C)c3ccc(Br)cc3F)c2cc1OC | 0 | 14 | 0 | 15 | 
21 | < 5.00 |  | COc1cc2ncnc(Oc3ccc(NC(=O)Nc4ccc(F)c(Cl)c4)cc3)c2cc1OC |  |  |  |  | 
22 | < 5.00 |  | CCOC(=O)Nc1ccc(Oc2ncnc3cc(OC)c(OC)cc23)cc1 |  |  |  |  | 
23 | < 5.00 | 5.25 | CCOC(=O)Nc1ccc(Nc2ncnc3cc(OC)c(OC)cc23)cc1 | 6 | 16 | 0 | 12 | 
24 | < 5.00 |  | COc1ccc(NC(=O)Nc2ccc(Nc3ncnc4cc(OC)c(OC)cc34)cc2)cc1 |  |  |  |  | 
25 | < 5.00 |  | COC(=O)Nc1ccc(Oc2ncnc3cc(OC)c(OC)cc23)cc1 |  |  |  |  | 
26 | < 5.00 | 7.15 | COc1ccc(NC(=O)Nc2ccc(Oc3ncnc4cc(OC)c(OC)cc34)cc2)cc1 | 0 | 9 | 24 | 12 | pIC50 [9]: 7.15
27 |  | 5.24 | COC(=O)Nc1ccc(Nc2ncnc3cc(OC)c(OC)cc23)cc1 | 27 | 10 | 0 | 2 | 
28 | < 5.00 |  | COc1cc2ncnc(Oc3ccc(NC(=O)Nc4cccc5ccccc45)cc3)c2cc1OC | 8 | 17 | 9 | 8 | 
29 | < 5.00 |  | COc1cc2ncnc(Oc3ccc(NC(=O)Nc4ccc(F)cc4F)cc3)c2cc1OC |  |  |  |  | 
30 | < 5.00 |  | COc1cc2ncnc(Oc3ccc(NC(=O)Nc4ccc5ccccc5c4)cc3)c2cc1OC |  |  |  |  | 
31 | < 5.00 |  | COc1cc2ncnc(Oc3ccc(NC(=O)Nc4ccc(C(F)(F)F)cc4)cc3)c2cc1OC |  |  |  |  | 
32 |  | 5.28 | COc1cc2ncnc(Nc3ccc(F)c(Cl)c3)c2cc1OC |  |  |  |  | pIC50 (PC-3 [10]): 5.19; pIC50 (MCF7 [11]): 5.31; pIC50 [8]: 5.35; pIC50 (HT-29 [7]): 5.24
33 | < 5.00 |  | COc1ccc(NC(=O)Nc2cccc(Oc3ncnc4cc(OC)c(OC)cc34)c2)cc1 |  |  |  |  | 
34 | < 5.00 |  | COc1cc2ncnc(Oc3ccc(NC(=O)Nc4ccc(C)cc4)cc3)c2cc1OC | 23 | 17 | 42 | 23 | 
